Results reported in paper PMC5530816, “Anticancer metallohelices: nanomolar potency and high selectivity” (Chemical Science, 2015).

Key:
Type in all cases: cell-based
Escherichia coli, TOP10 = test: MIC by broth dilution, E. coli; settings: 20 h at 37 °C in Müller–Hinton broth
Procedure: (§1) The compounds were screened against cultures of the gram-positive bacterium methicillin-resistant Staphylococcus aureus, USA300 JE2 ([ref. 28 and 29]) (MRSA) and the gram-negative Escherichia coli, TOP10 (E. coli).[30] Kanamycin[30] was used as a positive control.
(§2) MIC values were established using a […] broth dilution method in cation-adjusted Müller–Hinton (MH) broth. 96-well plates (200 μL of 128 μg mL^–1, 64 μM) complex in MH broth, diluted 2^n μg mL^–1, inoculated with each bacterial strain (10^3 cfu mL^–1) were sealed and growth was monitored over 20 h at 37 °C with an iEMS 96-well plate reader (see ESI ^†).

[1] = system: methicillin-resistant Staphylococcus aureus, USA300 JE2; test: MIC by broth dilution, MRSA; settings: 20 h at 37 °C in Müller–Hinton broth
Procedure: as §1, §2

[2] = system: HCT116 p53^–/– (human colon carcinoma, p53-null); test: MTT chemosensitivity (IC50), HCT116 p53-/- cells; settings: 96 h exposure, triplicate, mean with standard deviation (esd)
From the text: (§3) The activities of the new compounds and cisplatin were investigated in human tumour cell lines: (a) MDA-MB-468 (human epithelial breast adenocarcinoma);[24] (b) HCT116 p53^+/+ and (c) HCT116 p53^–/–.[25] The HCT116 p53^+/+ and HCT116 p53^–/– cancer cells are human colorectal cancer cell lines that are genetically identical (isogenic) except for the presence or absence of functional p53.[25] These were chosen to enable screening of the effects of p53 status as the loss of p53 function is common genetic event in patient tumours and is strongly associated with increased resistance to many conventional chemotherapeutic agents.[25],[26]
(§4) Compounds were added (100 μM to 5 nM in cell medium) for a further 96 h. 3-(4,5-Dimethylthiazol-[…])-2,5-diphenyl tetrazolium bromide solution (0.5 mg mL^–1, 20 μL per well) was added for a final 4 h. Upon completion all solutions were aspirated, dimethyl sulfoxide (150 μl) was added and absorbance (540 nm) was recorded with a Thermo Scientific Multiskan EX microplate photometer. […]
(§5) 0 ×10 3 c el l s / wel l and i nc u bat ed f or24 hat 37 ° C i n an at mos p h er e of5% C O2, p r i ort o d r u gexp os u r e. […]
(§6) C ell med ia (20 0 μ l) was ad d ed to the referenc e c ells and d iffering c onc entrations of d ru g s olu tion (20 0 μ l) were ad d ed to the remaining wells . […]

[3] = system: MDA-MB-468 (human epithelial breast adenocarcinoma); test: MTT chemosensitivity (IC50), MDA-MB-468 cells; settings: 96 h exposure, triplicate, mean with standard deviation (esd)
From the text: as §3, §4, §5, §6

[4] = system: HCT116 p53^+/+ (human colon carcinoma, wild type p53); test: MTT chemosensitivity (IC50), HCT116 p53+/+ cells; settings: 96 h exposure, triplicate, mean with standard deviation (esd)
From the text: as §3, §4, §5, §6

[5] = approximate concentration in μM

SMILES | E. coli MIC (Escherichia coli, TOP10) [μg ml^–1] | E. coli MIC (Escherichia coli, TOP10; [5]) [µM] | MRSA MIC [1] [μg ml^–1] | MRSA MIC [1, 5] [µM] | IC50 [2] [µM] | IC50 [3] [µM] | IC50 [4] [µM]
NC[C@H]1O[C@H](O[C@H]2[C@H](O)[C@@H](O[C@H]3O[C@H](CO)[C@@H](O)[C@H](N)[C@H]3O)[C@H](N)C[C@@H]2N)[C@H](O)[C@@H](O)[C@@H]1O [Kanamycin] | 2 | 4 | 1 | 2 | – | – | –
N.N.[Cl][Pt][Cl] [cisplatin] | – | – | – | – | 8.1 ± 1.8 | 2.5 ± 0.5 | 3.5 ± 1.5
